Drawing on patent publication US9029544B2, “Tricyclic pyridine derivatives, medicaments containing such compounds, their use and process for their preparation” (Boehringer Ingelheim International GmbH, priority 2010, dated 2015), this text covers IC50 for 22 molecules.

The test deals with T1, Recombinant human CETP (Homo sapiens, UniProt P11597).
T1 construct: made in house; host or cells: CHO cells (secreted into conditioned medium)
T1 sequence (P11597 18-493): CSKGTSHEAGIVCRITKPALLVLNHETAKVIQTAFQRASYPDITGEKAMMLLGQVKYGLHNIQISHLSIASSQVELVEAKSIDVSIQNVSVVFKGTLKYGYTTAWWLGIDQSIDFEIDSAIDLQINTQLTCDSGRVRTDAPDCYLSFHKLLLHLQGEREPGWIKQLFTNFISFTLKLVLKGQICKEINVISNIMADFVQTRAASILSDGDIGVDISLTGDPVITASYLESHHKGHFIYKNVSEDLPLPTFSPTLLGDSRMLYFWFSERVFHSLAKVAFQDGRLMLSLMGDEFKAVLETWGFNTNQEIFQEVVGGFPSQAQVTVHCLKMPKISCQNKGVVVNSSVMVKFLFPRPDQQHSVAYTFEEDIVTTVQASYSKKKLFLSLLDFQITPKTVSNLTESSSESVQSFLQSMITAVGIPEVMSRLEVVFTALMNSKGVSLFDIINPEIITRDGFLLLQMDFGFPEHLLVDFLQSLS
As to the kind of experiment: CETP in vitro assay (fluorometric assay, Roar Biomedical; cholesterol ester transfer from HDL to LDL). The conditions noted are these: recombinant human CETP from CHO cells; 3 hours at 37° C.; fluorescence 485/535 nm; compound concentrations between 1 nM and 30 μM; read-out: IC50 values for inhibition of CETP. It counts as biochemical. The protocol:
CETP inhibitory activity of compounds of the present invention can be determined in a fluorometric assay purchased from Roar Biomedical, Inc. (New York, N.Y., USA). […] Recombinant human CETP was partially purified from medium conditioned by CETP expressing CHO cells. In a 384 well format 2.5 μl of compound solution in DMSO was combined with 2 μl of donor solution, 2 μl of acceptor solution and 0.8 μl of recombinant human CETP solution in a total volume of 100 μl with assay buffer and incubated for 3 hours at 37° C. The fluorescence intensity was measured at excitation wavelength of 485 nm and emission wavelength of 535 nm. IC50 values are calculated from dose effect curves from compound concentrations between 1 nM and 30 μM.
As to `CC(C)c1nc2c(c3c1[C@H](c1ccc(C(F)(F)F)cc1)OC31CCCC1)[C@H](O)CC(C)(C)C2` (single isomer, unassigned) [2 (Diastereomer 1), (3′S,9′R)-4′-isopropyl-7′,7′-dimethyl-3′-(4-(trifluoromethyl)phenyl)-6′,7′,8′,9′-tetrahydro-3′H-spiro[cyclopentane-1,1′-furo[3,4-c]quinolin]-9′-ol], the IC50 (commonly the concentration needed to halve the response being measured) amounted to 699 nM.

On to `CC(C)c1nc2c(c3c1[C@@H](c1ccc(C(F)(F)F)cn1)OC31CCC(F)(F)CC1)[C@@H](O)CC(C)(C)C2` (single isomer, unassigned) [7 (Diastereomer 1), (3′S,9′S)-4,4-difluoro-4′-isopropyl-7′,7′-dimethyl-3′-(5-(trifluoromethyl)pyridin-2-yl)-6′,7′,8′,9′-tetrahydro-3′H-spiro[cyclohexane-1,1′-furo[3,4-c]quinolin]-9′-ol], for which the IC50 was found to be 193 nM.

As for `CC(C)c1nc2c(c3c1[C@H](c1ccc(C(F)(F)F)cn1)OC31CCC(F)(F)CC1)[C@@H](O)CC(C)(C)C2` (single isomer, unassigned) [7 (Diastereomer 2), (3′R,9′S)-4,4-difluoro-4′-isopropyl-7′,7′-dimethyl-3′-(5-(trifluoromethyl)pyridin-2-yl)-6′,7′,8′,9′-tetrahydro-3′H-spiro[cyclohexane-1,1′-furo[3,4-c]quinolin]-9′-ol], the half-maximal inhibitory concentration (IC50) is 1150 nM.

Consider `CC(=O)O[C@H]1c2nc(C(C)C)c3c(c2[C@@H](O)CC1(C)C)C1(CCCC1)O[C@@H]3c1ccc(C(F)(F)F)nc1` [1(46), (3′R,6′R,9′S)-9′-hydroxy-4′-isopropyl-7′,7′-dimethyl-3′-(6-(trifluoromethyl)pyridin-3-yl)-6′,7′,8′,9′-tetrahydro-3′H-spiro[cyclopentane-1,1′-furo[3,4-c]quinoline]-6′-yl acetate], for which the IC50 amounted to 1830 nM.

On to `CC(C)c1nc2c(c3c1[C@@H](c1ccc(C(F)(F)F)nc1)OC31CCOCC1)[C@@H](O)CC(C)(C)C2` [1(47), (3R,9S)-4-isopropyl-7,7-dimethyl-3-(6-(trifluoromethyl)pyridin-3-yl)-2′,3′,5′,6,6′,7,8,9-octahydro-3H-spiro[furo[3,4-c]quinoline-1,4′-pyran]-9-ol], for which the half-maximal inhibitory concentration (IC50) is 136 nM.

In the case of `CC(=O)O[C@H]1c2nc(C(C)C)c3c(c2[C@@H](O)CC1(C)C)C1(CCOCC1)O[C@@H]3c1ccc(C(F)(F)F)cc1` [1(48), (3R,6R,9S)-9-hydroxy-4-isopropyl-7,7-dimethyl-3-(4-(trifluoromethyl)phenyl)-2′,3′,5′,6,6′,7,8,9-octahydro-3H-spiro[furo[3,4-c]quinoline-1,4′-pyran]-6-yl acetate], the IC50 was 142 nM.

For `CC(C)c1nc2c(c3c1[C@@H](c1ccc(C(F)(F)F)cn1)OC31CCOCC1)[C@@H](O)CC1(CCC1)C2` [1(49), (3S,9S)-4-isopropyl-7,7-(propan-1,3-diyl)-3-(5-(trifluoromethyl)pyridin-2-yl)-2′,3′,5′,6,6′,7,8,9-octahydro-3H-spiro[furo[3,4-c]quinoline-1,4′-pyran]-9-ol], the IC50 turned out to be 37 nM.

Take `CC(C)c1nc2c(c3c1[C@@H](c1ccc(C(F)(F)F)cc1)OC31CCOCC1)[C@@H](O)CC1(CCC1)C2` [1(50), (3R,9S)-4-isopropyl-7,7-(propan-1,3-diyl)-3-(4-(trifluoromethyl)phenyl)-2′,3′,5′,6,6′,7,8,9-octahydro-3H-spiro[furo[3,4-c]quinoline-1,4′-pyran]-9-ol]: the IC50 is 7 nM.

As for `CC(C)c1nc2c(c3c1[C@@H](c1ccc(C(F)(F)F)cc1F)OC31CCOCC1)[C@@H](O)CC1(CCC1)C2` [1(51), (3S,9S)-3-(2-fluoro-4-(trifluoromethyl)phenyl)-4-isopropyl-7,7-(propan-1,3-diyl)-2′,3′,5′,6,6′,7,8,9-octahydro-3H-spiro[furo[3,4-c]quinoline-1,4′-pyran]-9-ol], the IC50 stood at 13 nM.

On to `CC(C)c1nc2c(c3c1[C@@H](c1ccc(C(F)(F)F)nc1)OC31CCOCC1)[C@@H](O)CC1(CCC1)C2` [1(52), (3R,9S)-4-isopropyl-7,7-(propan-1,3-diyl)-3-(6-(trifluoromethyl)pyridin-3-yl)-2′,3′,5′,6,6′,7,8,9-octahydro-3H-spiro[furo[3,4-c]quinoline-1,4′-pyran]-9-ol], for which the IC50 came to 54 nM.

For the molecule `CC(C)c1nc2c(c3c1[C@@H](c1ccc(C(F)(F)F)c(F)c1)OC31CCOCC1)[C@@H](O)CC(C)(C)C2` [1(53), (3R,9S)-3-(3-fluoro-4-(trifluoromethyl)phenyl)-4-isopropyl-7,7-dimethyl-2′,3′,5′,6,6′,7,8,9-octahydro-3H-spiro[furo[3,4-c]quinoline-1,4′-pyran]-9-ol], the IC50 was 23 nM.

Take `CC(C)c1nc2c(c3c1[C@H](c1ccc(C(F)(F)F)c(F)c1)OC31CCOCC1)[C@@H](O)CC(C)(C)C2` [1(54), (3S,9S)-3-(3-fluoro-4-(trifluoromethyl)phenyl)-4-isopropyl-7,7-dimethyl-2′,3′,5′,6,6′,7,8,9-octahydro-3H-spiro[furo[3,4-c]quinoline-1,4′-pyran]-9-ol]: the IC50 was found to be 1690 nM.

With `CC(C)c1nc2c(c3c1[C@@H](c1ccc(C(F)(F)F)cc1F)OC31CCOCC1)[C@@H](O)CC(C)(C)C2` [1(55), (3S,9S)-3-(2-fluoro-4-(trifluoromethyl)phenyl)-4-isopropyl-7,7-dimethyl-2′,3′,5′,6,6′,7,8,9-octahydro-3H-spiro[furo[3,4-c]quinoline-1,4′-pyran]-9-ol], the IC50 amounted to 26 nM.

Regarding `Cc1nc([C@H]2OC3(CCOCC3)c3c2c(C(C)C)nc2c3[C@@H](O)CC(C)(C)C2)sc1C(C)(C)C` [1(56), (3S,9S)-3-(5-tert-butyl-4-methylthiazol-2-yl)-4-isopropyl-7,7-dimethyl-2′,3′,5′,6,6′,7,8,9-octahydro-3H-spiro[furo[3,4-c]quinoline-1,4′-pyran]-9-ol], the IC50 was 470 nM.

In the case of `CC(C)c1nc2c(c3c1[C@@H](c1ccc(C(F)(F)F)cc1)OC31CCOCC1)[C@@H](O)CC1(CCCC1)C2` [1(57), (3R,9S)-4-isopropyl-7,7-(butan-1,4-diyl)-3-(4-(trifluoromethyl)phenyl)-2′,3′,5′,6,6′,7,8,9-octahydro-3H-spiro[furo[3,4-c]quinoline-1,4′-pyran]-9-ol], the IC50 stood at 82 nM.

Take `CC(C)c1nc2c(c3c1[C@@H](c1ccc(OC(C)(C)C)cc1)OC31CCOCC1)[C@@H](O)CC(C)(C)C2` [1(58), (3R,9S)-3-(4-tert-butoxyphenyl)-4-isopropyl-7,7-dimethyl-2′,3′,5′,6,6′,7,8,9-octahydro-3H-spiro[furo[3,4-c]quinoline-1,4′-pyran]-9-ol]: the half-inhibitory concentration (IC50) was determined as 88 nM.

As for `CC(C)Oc1ccc([C@H]2OC3(CCOCC3)c3c2c(C(C)C)nc2c3[C@@H](O)CC(C)(C)C2)cc1` [1(59), (3R,9S)-3-(4-isopropoxyphenyl)-4-isopropyl-7,7-dimethyl-2′,3′,5′,6,6′,7,8,9-octahydro-3H-spiro[furo[3,4-c]quinoline-1,4′-pyran]-9-ol], the IC50 worked out at 245 nM.

With `C=C(C)c1ccc([C@H]2OC3(CCCC3)c3c2c(C(C)C)nc2c3[C@@H](O)CC(C)(C)C2)cc1` [1(60), (3′R,9′S)-4′-isopropyl-7′,7′-dimethyl-3′-(4-(prop-1-en-2-yl)phenyl)-6′,7′,8′,9′-tetrahydro-3′H-spiro[cyclopentane-1,1′-furo[3,4-c]quinolin]-9′-ol], the IC50 came out at 44 nM.

As for `CC1(C)Cc2nc(C3CCOCC3)c3c(c2[C@@H](O)C1)C1(CCOCC1)O[C@@H]3c1ccc(S(F)(F)(F)(F)F)cc1` [1(61), (3R,9S)-7,7-dimethyl-4-(tetrahydro-2H-pyran-4-yl)-3-(4-(pentafluorosulfanyl)phenyl)-2′,3′,5′,6,6′,7,8,9-octahydro-3H-spiro[furo[3,4-c]quinoline-1,4′-pyran]-9-ol], the IC50 was 66 nM.

With `CC(C)c1nc2c(c3c1[C@@H](c1ccc(C(C)(C)C)cc1)OC31CCCC1)[C@@H](O)CC1(CCC1)C2` [1(62), (3′R,9′S)-3′-(4-tert-butylphenyl)-4′-isopropyl-7′,7′-(propan-1,3-diyl)-6′,7′,8′,9′-tetrahydro-3′H-spiro[cyclopentane-1,1′-furo[3,4-c]quinolin]-9′-ol], the IC50 came out at 21 nM.

On to `CC(C)c1nc2c(c3c1[C@@H](c1ccc(C(C)(C)C)cc1)OC31CCOCC1)[C@@H](O)CC1(CCC1)C2` [1(63), (3R,9S)-3-(4-tert-butylphenyl)-4-isopropyl-7,7-(propan-1,3-diyl)-2′,3′,5′,6,6′,7,8,9-octahydro-3H-spiro[furo[3,4-c]quinoline-1,4′-pyran]-9-ol], for which the IC50 turned out to be 6 nM.

`CC(C)c1nc2c(c3c1[C@@H](c1ccc(C4(C)COC4)cc1)OC31CCOCC1)[C@@H](O)CC(C)(C)C2` [1(64), (3R,9S)-4-isopropyl-7,7-dimethyl-3-(4-(3-methyloxetan-3-yl)phenyl)-2′,3′,5′,6,6′,7,8,9-octahydro-3H-spiro[furo[3,4-c]quinoline-1,4′-pyran]-9-ol]: the IC50 worked out at 86 nM.
